pIC50: −log10 of the molar value. Where a name gives a salt, the structure may show the parent alone.
Biological target: Arachidonate 5-lipoxygenase (Rattus norvegicus)
Test: Evaluated for inhibitory activity against RBL-1 cell 5-lipoxygenase in rat

`Cc1cc(OCCCCN2CCN(C(c3ccccc3)c3ccccc3)CC2)c(C)c(C)c1O` [4-[4-(4-Benzhydryl-piperazin-1-yl)-butoxy]-2,3,6-trimethyl-phenol; hydrochloride] and `Cc1cc(OCCCN2CCN(C(c3ccccc3)c3ccccc3)CC2)c(C)c(C)c1O` [4-[3-(4-Benzhydryl-piperazin-1-yl)-propoxy]-2,3,6-trimethyl-phenol; hydrochloride] are within 0.2 log units of each other in pIC50: 6.45 for the first, 6.37 for the second.

`Cc1cc(OCCN2CCN(C(c3ccccc3)c3ccccc3)CC2)c(C)c(C)c1O` [4-[2-(4-Benzhydryl-piperazin-1-yl)-ethoxy]-2,3,6-trimethyl-phenol; hydrochloride] and `Cc1cc(OCCCCCCCCN2CCN(C(c3ccccc3)c3ccccc3)CC2)c(C)c(C)c1O` [4-[8-(4-Benzhydryl-piperazin-1-yl)-octyloxy]-2,3,6-trimethyl-phenol; hydrochloride] are within 0.2 log units of each other in pIC50: 6.09 for the first, 5.97 for the second.

From BindingDB's records for doi:10.1016/s0960-894x(98)00676-3 (Tokushima Bunri University, 1999)
